According to ChEMBL document CHEMBL6109086, “Discovery and biological evaluation of hederagenin derivatives as non-substrate inhibitors of P-glycoprotein-mediated multidrug resistance” (Eur J Med Chem, 2025):
Active and inactive are the calls of the source. The rule behind the calls is not given here.

Legend:
[1] = test system: KBV; test: Anti-tumor activity against human KBV cells xenografted in male BALB/c nude mouse assessed as reduction in tumor volume at 10 mg/kg administered once daily for 18 days; format: functional, organism-based; conditions: time 18.0 day
[2] = Sensitization of paclitaxel-induced cytotoxicity against human KBV cells assessed as fold change in paclitaxel IC50 at 5 uM incubated for 72 hrs by MTT assay relative to paclitaxel alone; format: functional
[3] = Reversal of multi-drug resistance in human KBV cells assessed as paclitaxel induced cytotoxicity by measuring cell survival at 10 uM measured after 72 hrs by MTT assay relative to control; format: functional
[4] = test system: KBV; test: Induction of cell cycle arrest in human KBV cells assessed as accumulation of cells at G2/M phase at 10 uM incubated for 24 hrs by PI staining based flow cytometry analysis; format: functional
[5] = test system: KBV; test: Induction of cell cycle arrest in human KBV cells assessed as accumulation of cells at G2/M phase at 10 uM in presence of paclitaxel incubated for 24 hrs by PI staining based flow cytometry analysis; format: functional
[6] = Sensitization of vincristine -induced cytotoxicity against human KBV cells assessed as fold change in vincristine IC50 at 5 uM incubated for 72 hrs by MTT assay relative to vincristine alone; format: functional
[7] = Sensitization of paclitaxel-induced cytotoxicity against human KBV cells assessed as fold change in paclitaxel IC50 at 2.5 uM incubated for 72 hrs by MTT assay relative to paclitaxel alone; format: functional
[8] = target: ATP-dependent translocase ABCB1 (Homo sapiens, UniProt P08183); test: Induction of thermal stabilization of p-glycoprotein in human KBV cells at 50 uM pre-treated with cells for 24 hrs and measured after 2 hrs by CESTA; format: cell-based; conditions: 26 h
ATP-dependent translocase ABCB1, sequence (P08183 whole entry): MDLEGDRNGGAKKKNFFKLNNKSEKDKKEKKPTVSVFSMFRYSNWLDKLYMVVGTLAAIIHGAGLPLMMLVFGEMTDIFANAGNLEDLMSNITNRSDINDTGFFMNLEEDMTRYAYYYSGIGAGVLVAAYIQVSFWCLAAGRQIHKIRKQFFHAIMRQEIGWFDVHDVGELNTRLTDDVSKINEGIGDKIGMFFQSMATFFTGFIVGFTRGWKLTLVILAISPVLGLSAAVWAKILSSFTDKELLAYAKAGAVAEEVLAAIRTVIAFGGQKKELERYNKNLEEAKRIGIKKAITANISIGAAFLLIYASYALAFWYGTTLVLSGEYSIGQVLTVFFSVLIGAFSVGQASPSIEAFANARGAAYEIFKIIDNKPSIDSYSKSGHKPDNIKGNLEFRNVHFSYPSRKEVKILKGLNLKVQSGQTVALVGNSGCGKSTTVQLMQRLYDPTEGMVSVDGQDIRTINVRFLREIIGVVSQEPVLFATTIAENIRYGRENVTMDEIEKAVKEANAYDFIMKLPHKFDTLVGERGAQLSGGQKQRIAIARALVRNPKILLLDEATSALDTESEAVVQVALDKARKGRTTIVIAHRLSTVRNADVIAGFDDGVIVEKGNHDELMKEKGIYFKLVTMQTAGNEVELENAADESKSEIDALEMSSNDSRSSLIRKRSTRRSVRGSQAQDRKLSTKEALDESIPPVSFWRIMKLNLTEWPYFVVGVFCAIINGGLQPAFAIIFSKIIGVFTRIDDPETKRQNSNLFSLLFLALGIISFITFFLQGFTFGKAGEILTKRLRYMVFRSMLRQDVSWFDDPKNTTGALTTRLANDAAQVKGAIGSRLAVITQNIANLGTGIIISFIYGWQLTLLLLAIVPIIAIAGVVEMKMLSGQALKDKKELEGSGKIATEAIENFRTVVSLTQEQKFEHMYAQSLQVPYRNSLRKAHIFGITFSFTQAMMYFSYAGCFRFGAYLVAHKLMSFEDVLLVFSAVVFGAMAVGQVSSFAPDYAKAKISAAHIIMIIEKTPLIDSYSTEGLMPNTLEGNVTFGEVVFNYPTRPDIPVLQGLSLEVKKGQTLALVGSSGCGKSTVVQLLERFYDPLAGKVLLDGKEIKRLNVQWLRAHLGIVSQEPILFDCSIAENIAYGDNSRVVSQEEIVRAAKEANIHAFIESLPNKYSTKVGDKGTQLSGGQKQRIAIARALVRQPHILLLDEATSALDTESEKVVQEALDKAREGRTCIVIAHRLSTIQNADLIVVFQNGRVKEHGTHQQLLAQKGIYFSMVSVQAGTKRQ

[9] = test system: KBV; test: Induction of Rh123 accumulation in human KBV cells at 10 uM incubated for 150 mins by flow cytometry analysis; format: functional, cell-based
[10] = test system: KBv200; test: Effect on p-glycoprotein expression level in human KBv200 cells at 2.5 to 10 uM measured after 4 hrs by Western blot analysis; format: functional, cell-based; conditions: dose 2.5-10 µM
[11] = Sensitization of paclitaxel-induced cytotoxicity against human KBV cells assessed as fold change in paclitaxel IC50 at 10 uM incubated for 72 hrs by MTT assay relative to paclitaxel alone; format: functional
[12] = Sensitization of vincristine -induced cytotoxicity against human KBV cells assessed as fold change in vincristine IC50 at 10 uM incubated for 72 hrs by MTT assay relative to vincristine alone; format: functional
[13] = test system: KBV; test: Induction of cell cycle arrest in human KBV cells assessed as accumulation of cells at G2/M phase in presence of paclitaxel incubated for 24 hrs by PI staining based flow cytometry analysis; format: functional; conditions: dose 2.5-10 µM
[14] = Drug accumulation in human KBV cells expressing p-glycoprotein at 10 uM measured after 4 hrs by UPLC-MS analysis; format: ADME, cell-based
[15] = Aqueous solubility of the compound in deionized water measured after 24 hrs by UV-vis spectrophotometric analysis; format: physicochemical; conditions: buffer
[16] = Cytotoxicity against human KBV cells assessed as paclitaxel induced cytotoxicity by measuring cell survival at 10 uM measured after 72 hrs by MTT assay relative to control; format: functional
[17] = test system: KBV; test: Induction of apoptosis in human KBV cells in presence of paclitaxel incubated for 24 hrs by PI staining based flow cytometry analysis; format: functional, cell-based; conditions: dose 2.5-10 µM
[18] = Drug accumulation in human KB cells […] at 10 uM measured after 4 hrs by UPLC-MS analysis; format: ADME, cell-based
[19] = Sensitization of vincristine -induced cytotoxicity against human KBV cells assessed as fold change in vincristine IC50 at 2.5 uM incubated for 72 hrs by MTT assay relative to vincristine alone; format: functional

- Activity [8]: Active
- Drug uptake [14]: Active
- solubility [15]: soluble
- Drug uptake [18]: Active
SMILES: CC1(C)CC[C@]2(C(=O)NCCCC(=O)OCCOCCOCCOCCOCCOCCO)CC[C@]3(C)C(=CC[C@@H]4[C@@]5(C)Cc6nccnc6[C@@](C)(CO)[C@@H]5CC[C@]43C)[C@@H]2C1
- Activity [1]: inactive
- fold change (FC) [2]: 6.12
- Activity [3]: 17.01%
- Activity [4]: inactive
- Activity [5]: Active
- fold change (FC) [6]: 6.09
- fold change (FC) [7]: 2.72
- Activity [9]: Active
- Activity [10]: inactive
- fold change (FC) [11]: 103.51
- fold change (FC) [12]: 14.41
- Activity [13]: Dose-dependent-effect
- Activity [16]: 86%
- Activity [17]: Dose-dependent-effect
- fold change (FC) [19]: 2.43
